Test systems include MCF7 breast; MALME-3M melanoma; UACC-257 melanoma; SK-MEL-5 melanoma; SW-620 colon; HOP-62 NSCLC; MDA-N; TK-10 renal; BT-549 breast; SNB-75 CNS; SF-539 CNS.
What all share (test): NCI anticancer screen, dose series, 48 h

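Cells were grown in 96-well plates and exposed to each compound for 48 hours at five concentrations; endpoints were interpolated linearly between bracketing concentrations, or set to the highest concentration if not reached. TGI: total growth inhibition.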 Some results are limits rather than exact numbers.

Turning to `O=c1oc2ccc3ccccc3c2cc1-c1cn2c(n1)sc1ccccc12`, the TGI in the assay with MCF7 breast, in the assay with MALME-3M melanoma, with UACC-257 melanoma, in the assay on SK-MEL-5 melanoma, with SW-620 colon and in the assay with HOP-62 NSCLC was more than 100 µM throughout. The TGI in the assay with MDA-N, in the assay with TK-10 renal, in the assay on BT-549 breast and with SNB-75 CNS was more than 100 µM each time.

Take `C#C[C@]1(O)[C@@H](CO)O[C@@H](n2ccc(N)nc2=O)[C@@H]1O`: the TGI with MCF7 breast is more than 100 µM; with SF-539 CNS, 13.5 µM; in the assay with MALME-3M melanoma it was 0.925 µM; in the assay on UACC-257 melanoma, 8.03 µM; with SK-MEL-5 melanoma it was 0.371 µM; in the assay on SW-620 colon, 3.92 µM. Also, the TGI in the assay on MDA-N amounted to 0.175 µM; in the assay with TK-10 renal, 2.65 µM; with BT-549 breast it was 22.2 µM; with SNB-75 CNS, 1.82 µM.

Regarding `COc1cc2cc3c4cc(OC)c(OC)cc4cc[n+]3c(C)c2cc1OC`, the TGI in the assay with MCF7 breast, in the assay on SF-539 CNS, in the assay with MALME-3M melanoma, in the assay with UACC-257 melanoma, in the assay on SK-MEL-5 melanoma and with SW-620 colon was more than 100 µM each time. Besides, the TGI in the assay with MDA-N is more than 100 µM; in the assay with TK-10 renal, more than 100 µM; with BT-549 breast, more than 100 µM; in the assay with SNB-75 CNS, 45.7 µM.

In the case of `CN1C(C)(C)CC(=O)C(Br)C1(C)C` (stereo not drawn), the TGI in the assay on MCF7 breast, in the assay on MALME-3M melanoma, in the assay on UACC-257 melanoma, with SK-MEL-5 melanoma, in the assay on SW-620 colon and in the assay on HOP-62 NSCLC was more than 100 µM in each case. The TGI in the assay with MDA-N, with TK-10 renal, in the assay with BT-549 breast and in the assay with SNB-75 CNS was more than 100 µM throughout.

`Cn1nc(-c2ccccc2)c2c(-c3ccccc3)c3cc(Cl)ccc3nc21`: the TGI with MCF7 breast, with MALME-3M melanoma, with UACC-257 melanoma, in the assay with SK-MEL-5 melanoma, in the assay on SW-620 colon and with HOP-62 NSCLC was more than 100 µM throughout. The TGI with MDA-N, in the assay on TK-10 renal, in the assay on BT-549 breast and in the assay on SNB-75 CNS was more than 100 µM each time.

As for `c1ccc2cc(CNCCCCNCCCNCc3ccc4ccccc4c3)ccc2c1`, the TGI worked out at 3.06 µM in the assay with MCF7 breast; 3.47 µM in the assay with SF-539 CNS; 3.28 µM in the assay on MALME-3M melanoma; 3.55 µM in the assay on UACC-257 melanoma; 0.915 µM in the assay with SW-620 colon; 3.31 µM with HOP-62 NSCLC. The TGI worked out at 2.54 µM in the assay on MDA-N, 3.39 µM with TK-10 renal, 3.37 µM in the assay on BT-549 breast and 2.95 µM with SNB-75 CNS.

As for `CC1CCC2CC1NC(=O)CCOCCC(=O)NC2(C)C` (stereo not drawn), the TGI in the assay with MCF7 breast, in the assay on SF-539 CNS, in the assay on UACC-257 melanoma, with SK-MEL-5 melanoma, in the assay on SW-620 colon and with HOP-62 NSCLC was more than 100 µM in each case. The TGI in the assay on MDA-N, with TK-10 renal, with BT-549 breast and in the assay with SNB-75 CNS was more than 100 µM each time.

For `Cc1ccc(S(=O)(=O)ON2C(=O)c3c(N)c(C#N)c(-c4ccccc4)c(-c4ccccc4)c3C2=O)cc1`, the TGI in the assay with MCF7 breast was determined as 37.4 µM; in the assay on SF-539 CNS, 58.2 µM; with MALME-3M melanoma, 45.8 µM; in the assay with UACC-257 melanoma, 38 µM; in the assay on SK-MEL-5 melanoma, 40.6 µM; in the assay with SW-620 colon, 30.8 µM. Also, the TGI in the assay with MDA-N was 32.2 µM; in the assay with TK-10 renal, 36.8 µM; with BT-549 breast, 34.8 µM; in the assay on SNB-75 CNS it was more than 100 µM.

`COc1ccccc1NC(=O)C(=O)Cc1cnc2ccccc2n1`: the TGI with MCF7 breast, in the assay with SF-539 CNS, in the assay with UACC-257 melanoma, in the assay with SK-MEL-5 melanoma, in the assay with SW-620 colon and in the assay with MDA-N was more than 100 µM in each case. In addition, the TGI in the assay on BT-549 breast and in the assay with SNB-75 CNS was more than 100 µM each time.

As to `COC(=O)[C@H](COC(C)(C)C)NC(=O)N[C@H](C)c1ccccc1`, the TGI in the assay with MCF7 breast, in the assay on SF-539 CNS, in the assay with UACC-257 melanoma, with SK-MEL-5 melanoma, in the assay on SW-620 colon and with HOP-62 NSCLC was more than 100 µM in each case. Also, the TGI in the assay on MDA-N, with TK-10 renal, with BT-549 breast and with SNB-75 CNS was more than 100 µM each time.

As to `CN1CC=C(c2cccn2C)CC1`, the TGI in the assay with MCF7 breast, with MALME-3M melanoma, in the assay on UACC-257 melanoma, in the assay on SK-MEL-5 melanoma, in the assay with SW-620 colon and with HOP-62 NSCLC was more than 100 µM in each case. The TGI in the assay with MDA-N, with TK-10 renal, in the assay on BT-549 breast and in the assay with SNB-75 CNS was more than 100 µM in each case.

`c1ccc2nn(C3CCCO3)nc2c1` (stereo not drawn): the TGI in the assay on MCF7 breast, in the assay on SF-539 CNS, in the assay with MALME-3M melanoma, with UACC-257 melanoma, in the assay with SK-MEL-5 melanoma and with HOP-62 NSCLC was more than 100 µM each time. The TGI with MDA-N, in the assay with TK-10 renal, in the assay on BT-549 breast and with SNB-75 CNS was more than 100 µM in each case.

In the case of `c1ccc(-c2cc(-c3ccncc3)cc(-c3ccncc3)n2)cc1`, the TGI in the assay with MCF7 breast, with MALME-3M melanoma, in the assay on UACC-257 melanoma, in the assay with SK-MEL-5 melanoma, with SW-620 colon and in the assay on HOP-62 NSCLC was more than 100 µM throughout. For the same compound, the TGI in the assay on MDA-N was more than 100 µM; in the assay with TK-10 renal, more than 100 µM; in the assay on BT-549 breast it was more than 100 µM; with SNB-75 CNS, 99.1 µM.

Turning to `CC(=O)N=c1ccc2nc(N)nn(O)c-2c1`, the TGI with MCF7 breast, in the assay on SF-539 CNS, in the assay with UACC-257 melanoma, in the assay with SK-MEL-5 melanoma, in the assay with SW-620 colon and in the assay on HOP-62 NSCLC was more than 100 µM throughout. The TGI in the assay on MDA-N, with TK-10 renal, in the assay with BT-549 breast and in the assay on SNB-75 CNS was more than 100 µM each time.

Source of the values: PubChem BioAssay (NCI).
